Experimental data taken from patent US20160106439A1, “PNEUMATIC TOURNIQUET” (BIONUMERIK PHARMACEUTICALS, INC., priority 2013, published 2016).
Where two headings read alike, the source gives them in different places.

Columns and labels:
[1] = biological target: T1, mammalian thioredoxin reductase (TrxR) (Homo sapiens, UniProt Q16881); settings: cited from earlier work
T1 sequence (Q16881 1-499 isoform Q16881-5): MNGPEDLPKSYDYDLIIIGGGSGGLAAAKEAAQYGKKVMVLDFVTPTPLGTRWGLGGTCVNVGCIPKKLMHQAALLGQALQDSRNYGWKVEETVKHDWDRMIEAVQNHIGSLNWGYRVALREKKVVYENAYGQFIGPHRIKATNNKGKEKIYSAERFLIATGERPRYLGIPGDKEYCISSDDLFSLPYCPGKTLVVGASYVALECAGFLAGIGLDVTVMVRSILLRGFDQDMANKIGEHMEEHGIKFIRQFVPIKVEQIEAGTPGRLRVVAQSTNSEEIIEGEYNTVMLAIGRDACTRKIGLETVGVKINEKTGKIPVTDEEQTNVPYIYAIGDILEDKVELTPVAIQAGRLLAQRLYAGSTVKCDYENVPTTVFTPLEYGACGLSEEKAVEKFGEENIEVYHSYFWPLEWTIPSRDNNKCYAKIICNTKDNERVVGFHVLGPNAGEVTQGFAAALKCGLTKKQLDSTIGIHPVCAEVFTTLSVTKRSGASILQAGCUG

ErbB-3 = ErbB-3 (Homo sapiens, UniProt P21860); design: key: the “+” and “−” symbols signify the ability and inability to activate each of the ErbB receptors, respectively; the “+” and “−” symbols signify the ability and inability to activate each of the ErbB receptors, respectively; settings: ability to activate the receptor; cited from earlier work
ErbB-2 = ErbB-2 (Homo sapiens, UniProt P04626); design: key: the “+” and “−” symbols signify the ability and inability to activate each of the ErbB receptors, respectively; the “+” and “−” symbols signify the ability and inability to activate each of the ErbB receptors, respectively; settings: ability to activate the receptor; cited from earlier work
ErbB-4 = ErbB-4 (Homo sapiens, UniProt Q15303); design: key: the “+” and “−” symbols signify the ability and inability to activate each of the ErbB receptors, respectively; the “+” and “−” symbols signify the ability and inability to activate each of the ErbB receptors, respectively; settings: ability to activate the receptor; cited from earlier work
ErbB-4, sequence (Q15303 26-1308, species assumed): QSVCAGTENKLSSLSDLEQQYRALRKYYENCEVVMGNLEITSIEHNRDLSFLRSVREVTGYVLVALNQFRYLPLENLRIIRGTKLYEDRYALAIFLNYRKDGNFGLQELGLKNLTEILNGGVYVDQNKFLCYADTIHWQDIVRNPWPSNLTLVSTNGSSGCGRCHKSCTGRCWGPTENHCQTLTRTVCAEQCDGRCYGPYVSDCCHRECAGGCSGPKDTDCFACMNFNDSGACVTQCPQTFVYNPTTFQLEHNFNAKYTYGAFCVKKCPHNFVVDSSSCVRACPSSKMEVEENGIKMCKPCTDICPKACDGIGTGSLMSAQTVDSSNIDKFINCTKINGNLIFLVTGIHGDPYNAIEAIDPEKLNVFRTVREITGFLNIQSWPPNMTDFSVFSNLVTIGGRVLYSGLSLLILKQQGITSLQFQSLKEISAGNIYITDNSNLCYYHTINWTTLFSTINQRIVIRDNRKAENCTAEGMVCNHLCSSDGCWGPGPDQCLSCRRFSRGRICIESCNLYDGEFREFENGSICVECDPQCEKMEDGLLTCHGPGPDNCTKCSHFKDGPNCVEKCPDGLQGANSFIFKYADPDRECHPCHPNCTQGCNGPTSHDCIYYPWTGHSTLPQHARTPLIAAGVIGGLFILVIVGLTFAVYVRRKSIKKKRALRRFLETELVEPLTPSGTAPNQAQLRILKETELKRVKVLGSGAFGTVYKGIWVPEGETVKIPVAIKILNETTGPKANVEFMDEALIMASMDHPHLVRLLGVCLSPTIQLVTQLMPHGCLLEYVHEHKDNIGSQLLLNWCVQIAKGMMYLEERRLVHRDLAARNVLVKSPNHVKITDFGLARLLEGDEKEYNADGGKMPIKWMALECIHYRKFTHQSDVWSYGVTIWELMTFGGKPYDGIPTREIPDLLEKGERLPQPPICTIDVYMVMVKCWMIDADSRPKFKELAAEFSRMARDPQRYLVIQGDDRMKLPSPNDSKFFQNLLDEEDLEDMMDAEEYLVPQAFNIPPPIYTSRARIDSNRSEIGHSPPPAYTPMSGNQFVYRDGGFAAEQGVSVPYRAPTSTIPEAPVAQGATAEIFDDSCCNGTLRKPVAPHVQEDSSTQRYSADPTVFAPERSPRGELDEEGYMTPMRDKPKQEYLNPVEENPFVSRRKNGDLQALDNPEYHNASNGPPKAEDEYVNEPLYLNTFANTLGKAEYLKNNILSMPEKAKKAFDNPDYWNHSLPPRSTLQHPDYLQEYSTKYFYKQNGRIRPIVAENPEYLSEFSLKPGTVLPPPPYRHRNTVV

ErbB-1 = ErbB-1 (Homo sapiens, UniProt P00533); settings: ability to activate the receptor; cited from earlier work
[2] = biological target: T2, glutathione reductase (GR) (Homo sapiens, UniProt P00390); settings: cited from earlier work
T2 sequence (P00390 44-522): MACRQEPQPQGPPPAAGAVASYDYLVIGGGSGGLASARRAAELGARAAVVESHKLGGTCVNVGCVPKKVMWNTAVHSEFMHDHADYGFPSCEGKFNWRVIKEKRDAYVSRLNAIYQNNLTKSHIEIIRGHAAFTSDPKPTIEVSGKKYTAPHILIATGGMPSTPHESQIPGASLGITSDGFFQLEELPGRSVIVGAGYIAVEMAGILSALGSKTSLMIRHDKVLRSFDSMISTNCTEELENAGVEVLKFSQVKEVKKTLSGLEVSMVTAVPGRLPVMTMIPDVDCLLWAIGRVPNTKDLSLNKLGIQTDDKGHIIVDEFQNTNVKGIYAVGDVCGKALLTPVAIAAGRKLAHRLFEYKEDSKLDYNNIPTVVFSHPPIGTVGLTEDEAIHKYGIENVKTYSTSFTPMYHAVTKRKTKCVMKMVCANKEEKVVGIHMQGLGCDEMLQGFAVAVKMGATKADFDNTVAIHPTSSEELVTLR

[3] = system: bovine brain microtubule protein (α-/β-tubulin); experiment: Microtubule protein polymerization assay (OD350) and electron microscopy; type: biochemical; settings: monoaquocisplatin 36 μM
Recombinant human Trx [4] = biological target: T3, Recombinant human Trx (Homo sapiens, UniProt P10599); experiment: LC MS of Trypsin digested Trx after incubation with Tavocept, mesna or glutathione; type: binding; design: purchased Sigma (SigmaAldrich); host or cells: E. coli; settings: control reactions with glutathione
T3 sequence (P10599 1-105): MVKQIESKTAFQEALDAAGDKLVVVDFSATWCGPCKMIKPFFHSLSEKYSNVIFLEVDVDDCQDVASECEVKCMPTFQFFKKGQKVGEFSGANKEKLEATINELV

T790M EGFR kinase = T790M EGFR kinase (Homo sapiens, UniProt P00533, T790M); experiment: T790M EGFR kinase assay (ADP-glo); type: biochemical; settings: for IC50: read-out: IC50 on T790M EGFR kinase activity; for potentiation of Erlotinib inhibition of T790M EGFR kinase activity: 10 μM and 100 μM ATP
WT EGFR kinase = WT EGFR kinase (Homo sapiens, UniProt P00533); experiment: WT EGFR kinase assay (ADP-glo); settings: for potentiation of Erlotinib inhibition of WT EGFR kinase activity: 10 μM and 100 μM ATP
Recombinant human Trx [5] = biological target: T3, Recombinant human Trx; type: biochemical; design: 6xHis (N); purchased Sigma (Trx); American Diagnostica (bovine TrxR); settings: over MSSH and MSSCE
Procedure: See, Luthman M and Holmgren A. Rat liver thioredoxin and thioredoxin reductase: purification and characterization. […] All disulfides were added to reactions as 10x solutions in buffer. The total volume of each reaction was 0.1 mL. Reactions were initiated by the addition of TrxR and were incubated at 25° C. for 40 minutes. Reactions were analyzed using a Molecular Devices SpectraMax Plus UV/vis plate reader and the activity was calculated using a 4 minute linear portion of each assay.

TrxR/Trx system = biological target: T4, TrxR/Trx system (Homo sapiens, UniProt P10599); experiment: NADPH oxidation by TrxR and Trx; type: biochemical; settings: increasing concentrations of the substance
T4 construct: 6xHis (N); purchased Sigma (Trx); American Diagnostica (bovine TrxR)
T4 sequence (P10599 1-105): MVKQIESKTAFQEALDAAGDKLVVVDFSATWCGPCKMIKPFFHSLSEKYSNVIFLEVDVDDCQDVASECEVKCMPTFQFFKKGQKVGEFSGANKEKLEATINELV

[6] = read-out: IC50 on WT EGFR kinase activity, 10 μM ATP
[7] = read-out: IC50 on WT EGFR kinase activity, 100 μM ATP
[8] = read-out: IC50 on WT EGFR kinase activity, 250 μM ATP, conducted only once
[9] = IC50 on WT EGFR kinase activity, 10 μM ATP
[10] = IC50 on WT EGFR kinase activity, 100 μM ATP
[11] = IC50 on WT EGFR kinase activity, 250 μM ATP, conducted only once

## COc1cccc2c1C(=O)c1c(O)c3c(c(O)c1C2=O)C[C@@](O)(C(C)=O)C[C@@H]3O[C@H]1C[C@H](N)[C@H](O)[C@H](C)O1 [daunorubicin]
[1]
  Inhibition of TrxR: not inhibitors

## O=P1(NCCCl)OCCCN1CCCl (centres unmarked) [ifosfamide]
[1]
  Inhibition of TrxR: inhibited

## betacellulin: growth factor ligand of ErbB receptors
ErbB-3
  ErbB-3: −
ErbB-2
  ErbB-2: −
ErbB-4
  ErbB-4: +
ErbB-1
  ErbB-1: +

## N.N.O=C([O-])C1(C(=O)[O-])CCC1.[Pt+2] [carboplatin]
[1]
  Inhibition of TrxR: could not inhibit
[2]
  Inhibition of GR: could not inhibit

## O=C1[O][Pt]2([NH][C@@H]3CCCC[C@H]3[NH]2)[O]C1=O [oxaliplatin]
[1]
  Inhibition of TrxR: irreversibly inhibited
[2]
  Inhibition of GR: not GR

## COc1cccc2c1C(=O)c1c(O)c3c(c(O)c1C2=O)C[C@@](O)(C(=O)CO)C[C@@H]3O[C@H]1C[C@H](N)[C@H](O)[C@H](C)O1 [doxorubicin]
[1]
  Inhibition of TrxR: not inhibitors

## CC1=C(/C=C/C(C)=C/C=C/C(C)=C\C(=O)O)C(C)(C)CCC1 [13-cis-retinoic acid]
[1]
  Inhibition of TrxR: irreversible inhibition

## epiregulin: growth factor ligand of ErbB receptors
ErbB-3
  ErbB-3: −
ErbB-2
  ErbB-2: −
ErbB-4
  ErbB-4: +
ErbB-1
  ErbB-1: +

## N.N.O.[Cl][Pt+] [monoaquocisplatin, reference compound]
[3]
  effect of extended exposure on microtubule protein polymerization: notable and reproducible loss

## EGF: growth factor ligand of ErbB receptors
ErbB-3
  ErbB-3: −
ErbB-2
  ErbB-2: −
ErbB-4
  ErbB-4: −

## TGF-α: growth factor ligand of ErbB receptors
ErbB-3
  ErbB-3: −
ErbB-2
  ErbB-2: −
ErbB-4
  ErbB-4: −

## N[C@@H](CCC(=O)N[C@@H](CS)C(=O)NCC(=O)O)C(=O)O [glutathione, γ-glutamyl-cysteinyl-glycine, reference compound]
Recombinant human Trx [4]
  Glutathione adduct on Trx: glutathionylated at cysteine-73 (Cys73)

## O=C(O)CCCc1ccc(N(CCCl)CCCl)cc1 [chlorambucil]
[1]
  Inhibition of TrxR: irreversibly inhibited
[2]
  Inhibition of GR: not GR

## NC(CSSCCS(=O)(=O)O)C(=O)NC(CCC(=O)O)C(=O)O (centres unmarked) [mesna-cysteinylglutamate]
T790M EGFR kinase; 10 μM ATP
  IC50: 1090 ± 190 µM
T790M EGFR kinase
  potentiation of Erlotinib inhibition of T790M EGFR kinase activity: effectively potentiated
T790M EGFR kinase; 100 μM ATP
  IC50: 1050 ± 80 µM
WT EGFR kinase
  potentiation of Erlotinib inhibition of WT EGFR kinase activity: effectively potentiated
WT EGFR kinase; [6]
  IC50: 714 ± 120 µM
WT EGFR kinase; [7]
  IC50: 815 ± 20 µM
WT EGFR kinase; [8]
  IC50: 690 µM

## NC(CSSCCS(=O)(=O)O)C(=O)O (centres unmarked) [mesna-cysteine]
T790M EGFR kinase; 10 μM ATP
  IC50: 3760 ± 260 µM
T790M EGFR kinase
  potentiation of Erlotinib inhibition of T790M EGFR kinase activity: effectively potentiated
T790M EGFR kinase; 100 μM ATP
  IC50: 3030 ± 280 µM
WT EGFR kinase
  potentiation of Erlotinib inhibition of WT EGFR kinase activity: effectively potentiated
WT EGFR kinase; [9]
  IC50: 2750 ± 800 µM
WT EGFR kinase; [10]
  IC50: 2650 ± 110 µM
WT EGFR kinase; [11]
  IC50: 2870 µM

## NC(CSSCCS(=O)(=O)O)C(=O)NCC(=O)O (centres unmarked) [mesna-cysteinylglycine]
T790M EGFR kinase; 10 μM ATP
  IC50: 510 ± 10 µM
T790M EGFR kinase
  potentiation of Erlotinib inhibition of T790M EGFR kinase activity: effectively potentiated
T790M EGFR kinase; 100 μM ATP
  IC50: 410 ± 50 µM
WT EGFR kinase
  potentiation of Erlotinib inhibition of WT EGFR kinase activity: effectively potentiated
WT EGFR kinase; [9]
  IC50: 445 ± 80 µM
WT EGFR kinase; [10]
  IC50: 370 ± 121 µM
WT EGFR kinase; [11]
  IC50: 320 µM

## NC(CCC(=O)NC(CSSCCS(=O)(=O)O)C(=O)NCC(=O)O)C(=O)O (centres unmarked) [mesna-glutathione]
T790M EGFR kinase; 10 μM ATP
  IC50: 1280 ± 290 µM
T790M EGFR kinase
  potentiation of Erlotinib inhibition of T790M EGFR kinase activity: effectively potentiated
T790M EGFR kinase; 100 μM ATP
  IC50: 1170 ± 10 µM
WT EGFR kinase
  potentiation of Erlotinib inhibition of WT EGFR kinase activity: effectively potentiated
WT EGFR kinase; [6]
  IC50: 724 ± 220 µM
WT EGFR kinase; [7]
  IC50: 820 ± 240 µM
WT EGFR kinase; [8]
  IC50: 1570 µM

## neuregulin 1
ErbB-3
  ErbB-3: +
ErbB-2
  ErbB-2: −
ErbB-4
  ErbB-4: +
ErbB-1
  ErbB-1: −

## O=NN(CCCl)C(=O)NCCCl [carmustine]
[1]
  Inhibition of TrxR: can inhibit
[2]
  Inhibition of GR: can inhibit

## N.N.[Cl][Pt+2][Cl] [transplatin]
[1]
  Inhibition of TrxR: irreversibly inhibited
[2]
  Inhibition of GR: not GR

## amphiregulin: growth factor ligand of ErbB receptors
ErbB-3
  ErbB-3: −
ErbB-2
  ErbB-2: −
ErbB-4
  ErbB-4: −
ErbB-1
  ErbB-1: +

## N.N.[Cl][Pt][Cl] [cisplatin]
[1]
  Inhibition of TrxR: irreversibly inhibited
[2]
  Inhibition of GR: not GR

## CS(=O)(=O)OCCCCOS(C)(=O)=O [busulfan]
[1]
  Inhibition of TrxR: irreversibly inhibited
[2]
  Inhibition of GR: not GR

## HB-EGF: growth factor ligand of ErbB receptors
ErbB-3
  ErbB-3: −
ErbB-2
  ErbB-2: −
ErbB-4
  ErbB-4: +
ErbB-1
  ErbB-1: +

## N[C@@H](Cc1ccc(N(CCCl)CCCl)cc1)C(=O)O [melphalan]
[1]
  Inhibition of TrxR: irreversibly inhibited
[2]
  Inhibition of GR: not GR

## NC(CSSCCS(=O)(=O)O)C(=O)NCC(=O)O (centres unmarked) [MSSCG, mesna-cysteinyl glycine disulfide]
WT EGFR kinase; 10 μM ATP, 0.50 mM + 4 nM Erlotinib
  more inhibition of WT EGFR relative to 4 nM Erlotinib alone: 28%
WT EGFR kinase; 10 μM ATP, 0.75 mM + 4 nM Erlotinib (MSSCG series)
  more inhibition of WT EGFR relative to 4 nM Erlotinib alone: 43%
Recombinant human Trx [5]
  Substrate preference of Trx: preferred slightly

## O=P1(N(CCCl)CCCl)NCCCO1 (centres unmarked) [cyclophosphamide]
[1]
  Inhibition of TrxR: irreversibly inhibited
[2]
  Inhibition of GR: not GR

## NC(CCSSCCS(=O)(=O)O)C(=O)O (centres unmarked) [MSSH, mesna-homocysteine disulfide]
TrxR/Trx system
  NADPH oxidation by TrxR and Trx: increases

B1: epigen: growth factor ligand of ErbB receptors (protein, UniProt Q6UW88 23-154, looked up)
Epigen: AAVTVTPPITAQQGNWTVNKTEADNIEGPIALKFSHLCLEDHNSYCINGACAFHHELEKAICRCFTGYTGERCEHLTLTSYAVDSYEKYIAIGIGVGLLLSGFLVIFYCYIRKRCLKLKSPYNVCSGERRPL
ErbB-3
  ErbB-3: −
ErbB-2
  ErbB-2: −
ErbB-4
  ErbB-4: −
ErbB-1
  ErbB-1: +
